Laboratory results published in the supplement of paper PMC13380429.

Assays:
Settings in all cases: 72 h
Vero E6 [1] = experiment: relative viability EC50 (midpoint between 100% and the lowest measured viability); higher = less toxic
Calu-3 [2] = experiment: as above
HepG2 [3] = experiment: as above
Caco-2 [4] = experiment: as above
Vero E6 [5] = experiment: cell viability relative to DMSO; higher = less toxic
Calu-3 [6] = experiment: as above
HepG2 [7] = experiment: as above
Caco-2 [8] = experiment: as above
U2OS [9] = experiment: as above
Vero E6 [10] = experiment: drug sensitivity score (DSS) for viability; higher = more toxic; extreme values may be limits of the assay
Calu-3 [11] = experiment: as above
HepG2 [12] = experiment: as above
Caco-2 [13] = experiment: as above
U2OS [14] = experiment: as above
U2OS [15] = experiment: relative viability EC50 (midpoint between 100% and the lowest measured viability); higher = less toxic

| SMILES | relative viability EC50 (Vero E6 [1]) | relative viability EC50 (Calu-3 [2]) | relative viability EC50 (HepG2 [3]) | relative viability EC50 (Caco-2 [4]) | cell viability (Vero E6 [5]; 1 nM) | cell viability (Vero E6 [5]; 10 nM) | cell viability (Vero E6 [5]; 100 nM) | cell viability (Vero E6 [5]; 1000 nM) | cell viability (Vero E6 [5]; 10000 nM) | cell viability (Calu-3 [6]; 1 nM) | cell viability (Calu-3 [6]; 10 nM) | cell viability (Calu-3 [6]; 100 nM) | cell viability (Calu-3 [6]; 1000 nM) | cell viability (Calu-3 [6]; 10000 nM) | cell viability (HepG2 [7]; 1 nM) | cell viability (HepG2 [7]; 10 nM) | cell viability (HepG2 [7]; 100 nM) | cell viability (HepG2 [7]; 1000 nM) | cell viability (HepG2 [7]; 10000 nM) | cell viability (Caco-2 [8]; 1 nM) | cell viability (Caco-2 [8]; 10 nM) | cell viability (Caco-2 [8]; 100 nM) | cell viability (Caco-2 [8]; 1000 nM) | cell viability (Caco-2 [8]; 10000 nM) | cell viability (U2OS [9]; 1 nM) | cell viability (U2OS [9]; 10 nM) | cell viability (U2OS [9]; 100 nM) | cell viability (U2OS [9]; 1000 nM) | cell viability (U2OS [9]; 10000 nM) | drug sensitivity score (Vero E6 [10]) | drug sensitivity score (Calu-3 [11]) | drug sensitivity score (HepG2 [12]) | drug sensitivity score (Caco-2 [13]) | drug sensitivity score (U2OS [14]) | relative viability EC50 (U2OS [15]) |
| --- | --- | --- | --- | --- | --- | --- | --- | --- | --- | --- | --- | --- | --- | --- | --- | --- | --- | --- | --- | --- | --- | --- | --- | --- | --- | --- | --- | --- | --- | --- | --- | --- | --- | --- | --- |
| OCc1ccc(-c2nn(Cc3ccccc3)c3ccccc23)o1 [YC-1] | > 10 µM | > 10 µM | 1.5 µM | > 10 µM | 103% | 103% | 104% | 104% | 98.1% | 106% | 93.2% | 109% | 104% | 115% | 104% | 112% | 102% | 73.5% | 0.4% | 106% | 112% | 105% | 113% | 97.4% | 104% | 105% | 102% | 101% | 65.6% | 0 | 0 | 9.5 | 0 | 1.5 | – |
| Cc1c(C)c2c(c(C)c1OC(=O)CCC(=O)OCCO)CC[C@@](C)(CCC[C@H](C)CCC[C@H](C)CCCC(C)C)O2 [tocofersolan] | > 10 µM | > 10 µM | > 10 µM | > 10 µM | 97.8% | 97.9% | 95.9% | 94.9% | 99.3% | 105% | 101% | 105% | 104% | 95.2% | 98.4% | 99.8% | 95% | 103% | 100% | 96.8% | 105% | 106% | 101% | 90.2% | 102% | 105% | 99% | 98.4% | 72.9% | 0 | 0 | 0 | 0 | 1.3 | – |
| O=c1ccc2c(OCCCCOc3ccccc3)c3ccoc3cc2o1 [AS-77] | – | > 10 µM | > 10 µM | > 10 µM | – | – | – | – | – | 97.5% | 92.5% | 95.8% | 102% | 98.4% | 106% | 99.4% | 98.3% | 94.4% | 90% | 97% | 99% | 96.6% | 105% | 89.7% | 98.1% | 102% | 101% | 104% | 100% | – | 0 | 0 | 0 | 0 | > 10 µM |
| Cn1nnnc1SCC1=C(C(=O)O)N2C(=O)[C@@H](NC(=O)[C@H](OC=O)c3ccccc3)[C@H]2SC1 [cefamandole-nafate] | > 10 µM | > 10 µM | > 10 µM | > 10 µM | 104% | 104% | 96.9% | 102% | 104% | 90.2% | 108% | 94.4% | 94.1% | 92.6% | 85.1% | 103% | 100% | 94.3% | 93.3% | 97.9% | 91.8% | 98.6% | 99.4% | 100% | – | – | – | – | – | 0 | 0 | 0 | 0 | – | – |
| CCOc1ccccc1C(=O)O [2-ethoxybenzoic-acid] | – | > 10 µM | > 10 µM | > 10 µM | – | – | – | – | – | 113% | 99.9% | 97.1% | 99.6% | 108% | 111% | 107% | 93.5% | 101% | 91.7% | 102% | 93.1% | 95.5% | 97.9% | 93.9% | 95.8% | 99.6% | 93.7% | 94.8% | 98.7% | – | 0 | 0 | 0 | 0 | > 10 µM |
| CC(C)=CCC[C@](C)(O)[C@H]1CC[C@]2(C)[C@@H]1[C@H](O)C[C@@H]1[C@@]3(C)CC[C@H](O)C(C)(C)[C@@H]3CC[C@]12C [S-111] | > 10 µM | > 10 µM | – | > 10 µM | 104% | 102% | 98.3% | 105% | 100% | 95.5% | 95.4% | 89.1% | 97.2% | 93% | – | – | – | – | – | 106% | 98.3% | 103% | 104% | 99.8% | – | – | – | – | – | 0 | 0 | – | 0 | – | – |
| CCn1c(=O)/c(=C2\Sc3ccccc3N2C)s/c1=C\c1cccc[n+]1CC [MKT-077] | > 10 µM | 2.64 µM | 3.23 µM | 2.43 µM | 100% | 97.1% | 95.3% | 90.8% | 81% | 96.4% | 99.9% | 101% | 94.8% | 20.8% | 104% | 92.8% | 109% | 100% | 49% | 92.5% | 93.7% | 100% | 95% | 44% | 97.8% | 98.4% | 96.2% | 94.3% | 51.4% | 0.9 | 5.2 | 2.6 | 3.8 | 3.5 | – |
| CCCCCCCCCCCCCC(=O)OC(C)C [isopropyl-myristate] | > 10 µM | > 10 µM | – | > 10 µM | 101% | 104% | 91.5% | 96.8% | 96.4% | 98.3% | 105% | 101% | 105% | 94.1% | – | – | – | – | – | 111% | 97% | 110% | 96.9% | 98.6% | – | – | – | – | – | 0 | 0 | – | 0 | – | – |
| O=C1c2ccccc2S(=O)(=O)N1CCCCN1CCN(c2ncccn2)CC1 [ipsapirone] | > 10 µM | > 10 µM | > 10 µM | > 10 µM | 97% | 102% | 97.2% | 91.8% | 105% | 106% | 93.9% | 94.3% | 99.6% | 102% | 96.6% | 102% | 103% | 101% | 103% | 104% | 90.5% | 90.7% | 98.2% | 97.8% | – | – | – | – | – | 0 | 0 | 0 | 0 | – | – |
| O=C1NC(O)CCN1[C@@H]1O[C@H](CO)[C@@H](O)[C@H]1O (stereo partly drawn) [tetrahydrouridine] | – | > 10 µM | > 10 µM | > 10 µM | – | – | – | – | – | 108% | 102% | 103% | 101% | 96.2% | 112% | 101% | 98.1% | 99.1% | 110% | 101% | 100% | 95.2% | 102% | 99.2% | – | – | – | – | – | – | 0 | 0 | 0 | – | – |
| COc1ccc(CC(=O)NC(/N=C(\NC#N)Nc2cccc3ncccc23)C(C)(C)C)cc1OC (stereo not drawn) | > 10 µM | > 10 µM | > 10 µM | > 10 µM | 103% | 97% | 91.1% | 96.9% | 99.8% | 113% | 96.5% | 95.6% | 109% | 103% | 107% | 95.7% | 93.8% | 97.5% | 106% | 101% | 97.8% | 94.1% | 101% | 99.7% | – | – | – | – | – | 0 | 0 | 0 | 0 | – | – |
| C[n+]1ccccc1C=NO [pralidoxime] | – | > 10 µM | > 10 µM | > 10 µM | – | – | – | – | – | 96.6% | 93.1% | 93.8% | 91.3% | 110% | 106% | 115% | 102% | 101% | 89.7% | 103% | 94.5% | 105% | 99.8% | 95% | 100% | 97.4% | 103% | 98.4% | 103% | – | 0 | 0 | 0 | 0 | > 10 µM |
| Cc1cc(C)cc(C(=O)O[C@H]2C[C@H]3CC[C@@H](C2)N3C)c1 [tropanyl-3,5-dimethylbenzoate] | > 10 µM | > 10 µM | > 10 µM | > 10 µM | 91.8% | 94.3% | 96.3% | 91.7% | 108% | 99.7% | 107% | 98.2% | 106% | 93.3% | 99.5% | 106% | 102% | 92.7% | 93.2% | 104% | 97.6% | 92.7% | 102% | 94.9% | – | – | – | – | – | 0 | 0 | 0 | 0 | – | – |
| CN1C[C@H](C(=O)N[C@]2(C)O[C@@]3(O)[C@@H]4CCCN4C(=O)[C@H](Cc4ccccc4)N3C2=O)C[C@@H]2c3cccc4[nH]cc(c34)C[C@H]21 [dihydroergotamine] | – | > 10 µM | > 10 µM | > 10 µM | – | – | – | – | – | 102% | 96.9% | 96.3% | 95.1% | 114% | 109% | 113% | 105% | 109% | 97.3% | 102% | 98.3% | 108% | 111% | 99.7% | – | – | – | – | – | – | 0 | 0 | 0 | – | – |
| N[C@@H](CSC(c1ccccc1)(c1ccccc1)c1ccccc1)C(=O)O [S-trityl-L-cysteine] | 3.07 µM | > 10 µM | 3.21 µM | – | 98.5% | 100% | 102% | 99.2% | 45% | 105% | 104% | 94.2% | 92.5% | 84.6% | 83.6% | 93% | 104% | 100% | 40.5% | 96.6% | 100% | 85.9% | 98.4% | 61.4% | 101% | 104% | 94.6% | 101% | 48.5% | 3 | 0.5 | 3.2 | 2.1 | 2.7 | 3.25 µM |
| O=C(Nc1ccc(N2CCC(C(=O)N3CCOCC3)CC2)cc1)c1cnc(Oc2ccccc2)nc1 [TFC-007] | > 10 µM | > 10 µM | > 10 µM | > 10 µM | 90.1% | 101% | 90% | 95% | 110% | 96% | 87.6% | 100% | 100% | 103% | 106% | 110% | 101% | 91.8% | 91.4% | 99.6% | 101% | 110% | 97.9% | 110% | – | – | – | – | – | 0 | 0 | 0 | 0 | – | – |
| O=C(C=Cc1ccccc1)NC(NC(=S)Nc1ccc(Cl)cc1)C(Cl)(Cl)Cl (stereo not drawn) [sal003] | > 10 µM | > 10 µM | 3.08 µM | – | 94.9% | 102% | 100% | 100% | 81.2% | 106% | 99.8% | 95.1% | 108% | 95.6% | 104% | 102% | 96.2% | 99% | 19.1% | 97.6% | 96% | 101% | 91.1% | 74.1% | 98.8% | 94.6% | 98.2% | 93.7% | 91.5% | 0.5 | 0 | 4.6 | 2.2 | 0 | > 10 µM |
